These are literature values, as cited in US20220248734A1, “NUTRITIONAL HEALTH SUPPLEMENTS” (MAYO FOUNDATION FOR MEDICAL EDUCATION AND RESEARCH, priority 2019, published 2022).

For this data set the following is noted: NAC received within 24 hours of head injury from a blast.

In the case of `CC(=O)N[C@@H](CS)C(=O)O` [NAC, N-acetyl cysteine], the side effects result is “no reported side effects” and the symptom resolution entry is reported as “significantly increases symptom resolution”.
